The ΔTm is the change in melting temperature against a reference sample. The EC50 is the concentration needed to bring the measured effect to its halfway point. Higher therefore signals a need for much substance.

One assay deals with T1, hSTING c-terminal domain (purified hSTING aa154-342) (Homo sapiens, UniProt Q86WV6).
T1 construct: Purified hSTING (aa154-342)
T1 sequence (Q86WV6 154-342): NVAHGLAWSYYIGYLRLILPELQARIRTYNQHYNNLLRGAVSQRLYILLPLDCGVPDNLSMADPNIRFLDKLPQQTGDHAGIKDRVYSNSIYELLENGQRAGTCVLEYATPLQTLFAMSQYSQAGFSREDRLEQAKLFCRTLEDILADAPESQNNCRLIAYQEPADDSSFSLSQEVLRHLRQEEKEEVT
The assay can be described thus: Thermal shift assay for measuring the relative binding affinity to hSTING c-terminal domain. The following applies: Tm of sample minus mean Tm of negative control (buffer, 2% DMSO), SYPRO Orange. As to the method:
Test Example 1. Thermal Shift Assay for Measuring the Relative Binding Affinity to hSTING c-Terminal Domain
From each of the 10 mM stock solutions of compounds in DMSO, dilutions are made to create samples with three concentrations 10 mM, 5 mM and 2.5 mM. From these dilutions a final 50 fold dilution is made into assay buffer, giving concentrations of 200 μM, 100 μM, and 50 μM. From each of the buffer dilutions, 5 μL is added to the 384 well assay plate. A positive control is setup with cGAMP using the same dilution scheme as the ligands. A baseline thermal shift for the negative control is determined using buffer and 2% DMSO.
An aliquot of protein is thawed on ice and SYPRO orange reagent is brought to room temperature. The 5000× SYPRO orange stock is diluted in assay buffer to a concentration of 10×. Protein is diluted to a concentration of 10 μM in the prepared buffer/dye solution. Five micro-liters of protein/buffer/dye solution is added to each of the sample and control wells, and the plate is sealed with the provided films. The plate is centrifuged for 5 min at 20° C. at 1000 rpm.
On the Light Cycler instrument, measurements are made over a temperature gradient from 20° C. to 99° C. at 0.07° C./s and data acquisitions collected at a rate of 8/° C. is used to measure the change in fluorescence as a function of temperature. Data analysis is performed using the Roche Light Cycler Software to determine the melting temperature (Tm ° C.) of each sample. A mean Tm ° C. for the negative control is calculated and subtracted from each of the samples to generate the ΔTm ° C. values for each of the ligands.
The relative binding affinity to hSTING c-terminal domain of the compounds of the present invention was determined by the above assay, and ΔTm ° C. values are shown in the following table 1.
As to `CCn1nc(C)cc1C(=O)Nc1nc2cc(C(N)=O)cc(OCCCOP(=O)(O)O)c2n1CCC[C@H]1COc2cc(C(N)=O)cc3nc(NC(=O)c4cc(C)nn4CC)n1c23` [Example 23, (S)-3-((5-carbamoyl-1-(3-(7-carbamoyl-2-(1-ethyl-3-methyl-1H-pyrazole-5-carboxamido)-3,4-dihydro-5-oxa-1,2a-diazaacenaphthylen-3-yl)propyl)-2-(1-ethyl-3-methyl-1H-pyrazole-5-carboxamido)-1H-benzo[d]imidazol-7-yl)oxy)propyl dihydrogen phosphate], the shift in melting temperature (ΔTm) at 100 µM is 11 °C. Turning to `CCn1nc(C)cc1C(=O)Nc1nc2cc(C(N)=O)cc3c2n1[C@@H](CC(O)CO)CO3` (stereo partly drawn) [Example 9, (3S)-3-(2,3-dihydroxypropyl)-2-(1-ethyl-3-methyl-1H-pyrazole-5-carboxamido)-3,4-dihydro-5-oxa-1,2a-diazaacenaphthylene-7-carboxamide], the thermal shift (ΔTm) at 100 µM is -0.1 °C.

On to `CCn1nc(C)cc1C(=O)Nc1nc2cc(C(N)=O)cc(OC)c2n1CCCNCCC1COc2cc(C(N)=O)cc3nc(NC(=O)c4cc(C)nn4CC)n1c23` (centres unmarked) [Example 17, 3-(2-((3-(5-carbamoyl-2-(1-ethyl-3-methyl-1H-pyrazole-5-carboxamido)-7-methoxy-1H-benzo[d]imidazol-1-yl)propyl)amino)ethyl)-2-(1-ethyl-3-methyl-1H-pyrazole-5-carboxamido)-3,4-dihydro-5-oxa-1,2a-diazaacenaphthylene-7-carboxamide], for which the thermal shift (ΔTm) at 100 µM is 2 °C.

With `CCn1nc(C)cc1C(=O)Nc1nc2cc(C(N)=O)cc(OCCCOC)c2n1CCC[C@H]1COc2cc(C(N)=O)cc3nc(NC(=O)c4cc(C)nn4CC)n1c23` [Example 21, (S)-3-(3-(5-carbamoyl-2-(1-ethyl-3-methyl-1H-pyrazole-5-carboxamido)-7-(3-methoxypropoxy)-1H-benzo[d]imidazol-1-yl)propyl)-2-(1-ethyl-3-methyl-1H-pyrazole-5-carboxamido)-3,4-dihydro-5-oxa-1,2a-diazaacenaphthylene-7-carboxamide], the shift in melting temperature (ΔTm) at 100 µM turned out to be 13 °C. Same read-out and setting: the figure for `CCn1nc(C)cc1C(=O)Nc1nc2cc(C(N)=O)cc3c2n1[C@@H](CCCNC(=O)OCc1ccccc1)CO3` [Example 4, (S)-benzyl (3-(7-carbamoyl-2-(1-ethyl-3-methyl-1H-pyrazole-5-carboxamido)-3,4-dihydro-5-oxa-1,2a-diazaacenaphthylen-3-yl)propyl)carbamate] is 4.6 °C; for `CCn1nc(C)cc1C(=O)Nc1nc2cc(C(N)=O)cc(OCCO)c2n1CCC[C@H]1COc2cc(C(N)=O)cc3nc(NC(=O)c4cc(C)nn4CC)n1c23` [Example 20, (S)-3-(3-(5-carbamoyl-2-(1-ethyl-3-methyl-1H-pyrazole-5-carboxamido)-7-(2-hydroxyethoxy)-1H-benzo[d]imidazol-1-yl)propyl)-2-(1-ethyl-3-methyl-1H-pyrazole-5-carboxamido)-3,4-dihydro-5-oxa-1,2a-diazaacenaphthylene-7-carboxamide] it is 13 °C; for `C=CC[C@@H]1COc2cc(C(N)=O)cc3nc(NC(=O)c4cc(C)nn4CC)n1c23` [Example 6, (R)-3-allyl-2-(1-ethyl-3-methyl-1H-pyrazole-5-carboxamido)-3,4-dihydro-5-oxa-1,2a-diazaacenaphthylene-7-carboxamide] it is -0.5 °C.

On to `CCn1nc(C)cc1C(=O)N(C)c1nc2cc(C(N)=O)cc3c2n1CCO3` [Example 3, 2-(1-ethyl-N,3-dimethyl-1H-pyrazole-5-carboxamido)-3,4-dihydro-5-oxa-1,2a-diazaacenaphthylene-7-carboxamide], for which the shift in melting temperature (ΔTm) at 100 µM is 0.7 °C. Still for that read-out and setting: in the case of `CCC[C@H]1COc2cc(C(N)=O)cc3nc(NC(=O)c4cc(C)nn4CC)n1c23` [Example 7, (S)-2-(1-ethyl-3-methyl-1H-pyrazole-5-carboxamido)-3-propyl-3,4-dihydro-5-oxa-1,2a-diazaacenaphthylene-7-carboxamide] it was 5.4 °C; in that of `CCn1nc(C)cc1C(=O)Nc1nc2cc(C(N)=O)cc(OC)c2n1CCCCC1COc2cc(C(N)=O)cc3nc(NC(=O)c4cc(C)nn4CC)n1c23` (stereo in doubt) [Example 16, (S)-3-(4-(5-carbamoyl-2-(1-ethyl-3-methyl-1H-pyrazole-5-carboxamido)-7-methoxy-1H-benzo[d]imidazol-1-yl)butyl)-2-(1-ethyl-3-methyl-1H-pyrazole-5-carboxamido)-3,4-dihydro-5-oxa-1,2a-diazaacenaphthylene-7-carboxamide], 1 °C; in that of `CCn1nc(C)cc1C(=O)Nc1nc2cc(C(N)=O)cc3c2n1CCO3` [Example 2, 2-(1-ethyl-3-methyl-1H-pyrazole-5-carboxamido)-3,4-dihydro-5-oxa-1,2a-diazaacenaphthylene-7-carboxamide], 1.1 °C.

For the next assay, the target named is T2, STING in THP1-Dual KI-hSTING-R232 cells (Homo sapiens, UniProt Q86WV6, H232R).
T2 construct: host or cells: THP1-Dual KI-hSTING-R232 cells (human monocytic THP-1 reporter line)
T2 sequence (Q86WV6 whole entry H232R): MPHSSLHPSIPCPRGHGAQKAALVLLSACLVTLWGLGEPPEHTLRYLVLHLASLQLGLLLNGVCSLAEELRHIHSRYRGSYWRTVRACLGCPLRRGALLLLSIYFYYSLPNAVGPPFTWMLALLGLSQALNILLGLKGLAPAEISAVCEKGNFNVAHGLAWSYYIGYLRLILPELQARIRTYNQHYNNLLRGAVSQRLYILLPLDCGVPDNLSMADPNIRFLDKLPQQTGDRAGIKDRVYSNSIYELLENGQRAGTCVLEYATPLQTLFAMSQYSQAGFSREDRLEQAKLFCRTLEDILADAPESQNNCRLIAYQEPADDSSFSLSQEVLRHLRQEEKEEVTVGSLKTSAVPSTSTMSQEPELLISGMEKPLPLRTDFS
In words: Human THP1 reporter cell assay (IRF luciferase reporter). In kind it is cell-based. Particulars: 24 hours incubation. As to the method: Test Example 2. Human THP1 Reporter Cell Assay
• 1. Human THP1-Dual KI-hSTING-R232 Cells (InvivoGen, Cat. #thpd-r232) • 2. QUANTI-LUC (InvivoGen, Cat. #rep-qlc2) • 3. Media for cell culture and compound dilution: RPMI with high glucose and glutamine (Genesee, Cat. #25-506), 10% fetal bovine serum (Life Technologies, Cat. #10082147), 25 mM HEPES (Genesee, Cat. #25-534), 100 μg/ml Normocin (InvivoGen, Cat. #ant-nr-2), 10 μg/ml blasticidin (InvivoGen, Cat. #ant-bl-05), 100 μg/ml Zeocin (InvivoGen, Cat. #ant-zn-5p) and Penicillin-Streptomycin (100×) (Life Technologies, Cat. #15140122) • 4. Infinite M1000 plate reader (TECAN) Experimental Procedure
Activation of STING in THP1-Dual KI-hSTING-R232 cells was determined by measuring the luminescence signal resulting from the expression of the IRF luciferase reporter gene. All reagent preparation and assay procedures were conducted according to the protocols provided by InvivoGen. In brief, test compounds and cells (1×10^5 cells per well) were dispensed into 96-well plates with a final volume per well of 150 μl. Plates were incubated in a humidified, 5% CO2 incubator at 37° C. for 24 hours. The expression level of the reporter gene was measured by transferring 20 μl of the supernatant to a non-transparent 96-well plate to which 50 μl of QUANTI-LUC was dispensed into each well. The resulting luminescence signal was immediately read using a TECAN plate reader. The background luminescence signal from media was subtracted. The fold induction effect of the luminescence signal at each compound concentration was determined relative to controls that lack compound treatment. The plot of fold induction effect versus the log of compound concentration was fit in GraphPad Prism with a 4-parameter concentration response equation to calculate EC50 and Emax.
Activation of STING in THP1 of the compounds in the present invention was determined by the above assay, and EC50 values are shown in the following table 2.
(In a reporter assay the amount or activity of a reporter protein is the signal.)
Molecule `CCn1nc(C)cc1C(=O)Nc1nc2cc(C(N)=O)cc(OCCCOP(=O)(O)O)c2n1CCC[C@H]1COc2cc(C(N)=O)cc3nc(NC(=O)c4cc(C)nn4CC)n1c23` [Example 23, (S)-3-((5-carbamoyl-1-(3-(7-carbamoyl-2-(1-ethyl-3-methyl-1H-pyrazole-5-carboxamido)-3,4-dihydro-5-oxa-1,2a-diazaacenaphthylen-3-yl)propyl)-2-(1-ethyl-3-methyl-1H-pyrazole-5-carboxamido)-1H-benzo[d]imidazol-7-yl)oxy)propyl dihydrogen phosphate] gave a half-maximal effective concentration (EC50) of 700 nM. On the same count and under the same terms, in the case of `C=CC[C@H]1CNc2cc(C(N)=O)cc3nc(NC(=O)c4cc(C)nn4CC)n1c23` [Example 29, (S)-4-allyl-2-(1-ethyl-3-methyl-1H-pyrazole-5-carboxamido)-5,6-dihydro-4H-imidazo[1,5,4-de]quinoxaline-8-carboxamide] it was 12000 nM.

As for `C=CC[C@H]1CN(CCCOC)c2cc(C(N)=O)cc3nc(NC(=O)c4cc(C)nn4CC)n1c23` [Example 30, (S)-4-allyl-2-(1-ethyl-3-methyl-1H-pyrazole-5-carboxamido)-6-(3-methoxypropyl)-5,6-dihydro-4H-imidazo[1,5,4-de]quinoxaline-8-carboxamide], the EC50 turned out to be 1500 nM. Regarding `CCn1nc(C)cc1C(=O)Nc1nc2cc(C(N)=O)cc(OCCCOC)c2n1CCC[C@H]1COc2cc(C(N)=O)cc3nc(NC(=O)c4cc(C)nn4CC)n1c23` [Example 21, (S)-3-(3-(5-carbamoyl-2-(1-ethyl-3-methyl-1H-pyrazole-5-carboxamido)-7-(3-methoxypropoxy)-1H-benzo[d]imidazol-1-yl)propyl)-2-(1-ethyl-3-methyl-1H-pyrazole-5-carboxamido)-3,4-dihydro-5-oxa-1,2a-diazaacenaphthylene-7-carboxamide], the EC50 came to 60 nM. Still for that read-out and setting: the figure for `CCn1nc(C)cc1C(=O)Nc1nc2cc(C(N)=O)cc(OCCO)c2n1CCC[C@H]1COc2cc(C(N)=O)cc3nc(NC(=O)c4cc(C)nn4CC)n1c23` [Example 20, (S)-3-(3-(5-carbamoyl-2-(1-ethyl-3-methyl-1H-pyrazole-5-carboxamido)-7-(2-hydroxyethoxy)-1H-benzo[d]imidazol-1-yl)propyl)-2-(1-ethyl-3-methyl-1H-pyrazole-5-carboxamido)-3,4-dihydro-5-oxa-1,2a-diazaacenaphthylene-7-carboxamide] is 100 nM; for `C=CC[C@H]1CN(C)c2cc(C(N)=O)cc3nc(NC(=O)c4cc(C)nn4CC)n1c23` [Example 31, (S)-4-allyl-2-(1-ethyl-3-methyl-1H-pyrazole-5-carboxamido)-6-methyl-5,6-dihydro-4H-imidazo[1,5,4-de]quinoxaline-8-carboxamide] it is 2400 nM. On the same count and under the same terms, in the case of `C=CCC1CCCOc2cc(C(N)=O)cc3nc(NC(=O)c4cc(C)nn4CC)n1c23` (centres unmarked) [Example 27, 10-allyl-1-(1-ethyl-3-methyl-1H-pyrazole-5-carboxamido)-7,8,9,10-tetrahydro-6-oxa-2,10a-diazacycloocta[cd]indene-4-carboxamide] it was more than 20000 nM. Molecule `CCn1nc(C)cc1C(=O)Nc1nc2cc(C(N)=O)cc3c2n1[C@@H](C/C=C/CC(CC(=O)c1cc2cc(OC)c(OC)cc2s1)C(=O)O)CO3` (stereo partly drawn) [Example 28, (E)-6-((S)-7-carbamoyl-2-(1-ethyl-3-methyl-1H-pyrazole-5-carboxamido)-3,4-dihydro-5-oxa-1,2a-diazaacenaphthylen-3-yl)-2-(2-(5,6-dimethoxybenzo[b]thiophen-2-yl)-2-oxoethyl)hex-4-enoic acid] showed an EC50 of more than 20000 nM. The same measure, in the same setting: in the case of `C/C=C/C[C@@H]1COc2cc(C(N)=O)cc3nc(NC(=O)c4cc(C)nn4CC)n1c23` [Example 5-1, (R,E)-3-(but-2-en-1-yl)-2-(1-ethyl-3-methyl-1H-pyrazole-5-carboxamido)-3,4-dihydro-5-oxa-1,2a-diazaacenaphthylene-7-carboxamide] it was more than 20000 nM.

(Values after patent publication US11535633B2, “Fused tricyclic heterocycle compounds and therapeutic uses thereof” (Jiangsu Hengrui Medicine Co., Ltd., priority 2018, dated 2022).)
